Measurements reported in ChEMBL document CHEMBL1201862, “PubChem BioAssay data set” (2004).
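Growth conditions: 96-well plates. Treatment: test compound, 48 hours, 5 concentrations. Analysis: linear interpolation between bracketing concentrations; unreached endpoints set to highest concentration. GI50: concentration for 50% inhibition of growth.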 The source made the active and inactive calls. Rule as the data show it: active = GI50 up to about 1.1 µM and inactive = higher.

What was measured:
Test in all cases: growth of human tumour cells (NCI), 48 h
786-0 = test system: 786-0
A498 = test system: A498
A549 = test system: A549
ACHN = test system: ACHN
CAKI-1 = test system: CAKI-1
CCRF-CEM = test system: CCRF-CEM
COLO 205 = test system: COLO 205
DLD-1 = test system: DLD-1
DMS-114 = test system: DMS-114
DMS-273 = test system: DMS-273
EKVX = test system: EKVX
HCC 2998 = test system: HCC 2998
HCT-116 = test system: HCT-116
HCT-15 = test system: HCT-15
HL-60 = test system: HL-60
HOP-18 = test system: HOP-18
HOP-62 = test system: HOP-62
HT-29 = test system: HT-29
IGROV-1 = test system: IGROV-1
K562 = test system: K562
KM-20L2 = test system: KM-20L2
KM12 = test system: KM12
LOX IMVI = test system: LOX IMVI
LXFL 529 = test system: LXFL 529
M14 = test system: M14
M19-MEL = test system: M19-MEL
MOLT-4 = test system: MOLT-4
Malme-3M = test system: Malme-3M
NCI-H226 = test system: NCI-H226
NCI-H23 = test system: NCI-H23
NCI-H460 = test system: NCI-H460
NCI-H522 = test system: NCI-H522
OVCAR-3 = test system: OVCAR-3
OVCAR-4 = test system: OVCAR-4
OVCAR-5 = test system: OVCAR-5
OVCAR-8 = test system: OVCAR-8
RPMI-8226 = test system: RPMI-8226
RXF 393 = test system: RXF 393
SF-268 = test system: SF-268
SF-295 = test system: SF-295
SF-539 = test system: SF-539
SK-MEL-28 = test system: SK-MEL-28
SK-MEL-2 = test system: SK-MEL-2
SK-MEL-5 = test system: SK-MEL-5
SK-OV-3 = test system: SK-OV-3
SN12C = test system: SN12C
SNB-19 = test system: SNB-19
SNB-75 = test system: SNB-75
SNB-78 = test system: SNB-78
SR = test system: SR
SW-620 = test system: SW-620
TK-10 = test system: TK-10
U-251 = test system: U-251
UACC-257 = test system: UACC-257
UACC-62 = test system: UACC-62
UO-31 = test system: UO-31
XF498 = test system: XF498
BT-549 = test system: BT-549
DU-145 = test system: DU-145
HOP-92 = test system: HOP-92
Hs-578T = test system: Hs-578T
MCF7 = test system: MCF7
MDA-MB-231 = test system: MDA-MB-231
MDA-MB-435 = test system: MDA-MB-435
MDA-N = test system: MDA-N
NCI/ADR-RES = test system: NCI/ADR-RES
PC-3 = test system: PC-3
T47D = test system: T47D
RXF 631 = test system: RXF 631

Cc1c(Cl)ccc2c1NC(=O)C2(O)CC(=O)c1cccc2ccccc12 (stereo unspecified)
GI50 (786-0): 73.6 µM (inactive) | GI50 (A498): 69.5 µM (inactive) | GI50 (A549): > 100 µM (inactive) | GI50 (ACHN): > 100 µM (inactive) | GI50 (CAKI-1): 39.4 µM (inactive) | GI50 (CCRF-CEM): 40.3 µM (inactive) | GI50 (COLO 205): > 100 µM (inactive) | GI50 (DLD-1): > 100 µM (inactive) | GI50 (DMS-114): 18.3 µM (inactive) | GI50 (DMS-273): 40.1 µM (inactive) | GI50 (EKVX): > 100 µM (inactive) | GI50 (HCC 2998): > 100 µM (inactive) | GI50 (HCT-116): 69.5 µM (inactive) | GI50 (HCT-15): 78.5 µM | GI50 (HL-60): 13.3 µM (inactive) | GI50 (HOP-18): 77.3 µM (inactive) | GI50 (HOP-62): > 100 µM (inactive) | GI50 (HT-29): 43.4 µM (inactive) | GI50 (IGROV-1): > 100 µM (inactive) | GI50 (K562): 85.5 µM (inactive) | GI50 (KM-20L2): 51.8 µM (inactive) | GI50 (KM12): 41.9 µM (inactive) | GI50 (LOX IMVI): 96.6 µM (inactive) | GI50 (LXFL 529): > 100 µM (inactive) | GI50 (M14): > 100 µM (inactive) | GI50 (M19-MEL): 18.3 µM (inactive) | GI50 (MOLT-4): 35.2 µM (inactive) | GI50 (Malme-3M): > 100 µM (inactive) | GI50 (NCI-H226): > 100 µM (inactive) | GI50 (NCI-H23): > 100 µM (inactive) | GI50 (NCI-H460): 59.7 µM (inactive) | GI50 (NCI-H522): 43.8 µM (inactive) | GI50 (OVCAR-3): 78.3 µM (inactive) | GI50 (OVCAR-4): 26.2 µM (inactive) | GI50 (OVCAR-5): > 100 µM (inactive) | GI50 (OVCAR-8): > 100 µM (inactive) | GI50 (RPMI-8226): 28.9 µM (inactive) | GI50 (RXF 393): 99.3 µM (inactive) | GI50 (SF-268): > 100 µM (inactive) | GI50 (SF-295): > 100 µM (inactive) | GI50 (SF-539): > 100 µM (inactive) | GI50 (SK-MEL-28): > 100 µM (inactive) | GI50 (SK-MEL-2): > 100 µM (inactive) | GI50 (SK-MEL-5): 34 µM (inactive) | GI50 (SK-OV-3): > 100 µM (inactive) | GI50 (SN12C): > 100 µM (inactive) | GI50 (SNB-19): 90.8 µM (inactive) | GI50 (SNB-75): > 100 µM (inactive) | GI50 (SNB-78): > 100 µM (inactive) | GI50 (SR): 24.1 µM (inactive) | GI50 (SW-620): 38.9 µM (inactive) | GI50 (TK-10): > 100 µM (inactive) | GI50 (U-251): 44.7 µM (inactive) | GI50 (UACC-257): 98.9 µM (inactive) | GI50 (UACC-62): 36.7 µM (inactive) | GI50 (UO-31): > 100 µM (inactive) | GI50 (XF498): > 100 µM (inactive)

CCOC(=O)N1C/C(=C\c2ccccc2)C(=O)/C(=C/c2ccccc2)C1
GI50 (786-0): 2.9 µM (inactive) | GI50 (A498): 18 µM (inactive) | GI50 (A549): 12.3 µM (inactive) | GI50 (ACHN): 3.84 µM (inactive) | GI50 (BT-549): 2.3 µM (inactive) | GI50 (CAKI-1): 2.22 µM (inactive) | GI50 (CCRF-CEM): 1.51 µM (inactive) | GI50 (COLO 205): 4.7 µM (inactive) | GI50 (DLD-1): 2.56 µM (inactive) | GI50 (DMS-114): 3.27 µM (inactive) | GI50 (DMS-273): 2.34 µM (inactive) | GI50 (DU-145): 8.81 µM (inactive) | GI50 (EKVX): 10.6 µM (inactive) | GI50 (HCC 2998): 1.94 µM (inactive) | GI50 (HCT-116): 1.14 µM (inactive) | GI50 (HCT-15): 2.32 µM | GI50 (HL-60): 1.24 µM (inactive) | GI50 (HOP-18): 20.3 µM (inactive) | GI50 (HOP-62): 4.41 µM (inactive) | GI50 (HOP-92): 6.56 µM (inactive) | GI50 (HT-29): 1.49 µM (inactive) | GI50 (Hs-578T): 2.4 µM (inactive) | GI50 (IGROV-1): 5.02 µM (inactive) | GI50 (K562): 1.44 µM (inactive) | GI50 (KM-20L2): 7.71 µM (inactive) | GI50 (KM12): 2.03 µM (inactive) | GI50 (LOX IMVI): 1.7 µM (inactive) | GI50 (LXFL 529): 4.99 µM (inactive) | GI50 (M14): 2.77 µM (inactive) | GI50 (M19-MEL): 1.57 µM (inactive) | GI50 (MCF7): 0.955 µM (active) | GI50 (MDA-MB-231): 2.24 µM (inactive) | GI50 (MDA-MB-435): 2.48 µM (inactive) | GI50 (MDA-N): 1.72 µM (inactive) | GI50 (MOLT-4): 1.96 µM (inactive) | GI50 (Malme-3M): 7.36 µM (inactive) | GI50 (NCI-H226): 4.56 µM (inactive) | GI50 (NCI-H23): 5.31 µM (inactive) | GI50 (NCI-H460): 4 µM (inactive) | GI50 (NCI-H522): 2.56 µM (inactive) | GI50 (NCI/ADR-RES): 9.12 µM (inactive) | GI50 (OVCAR-3): 4.23 µM (inactive) | GI50 (OVCAR-4): 2.37 µM (inactive) | GI50 (OVCAR-5): 6.04 µM (inactive) | GI50 (OVCAR-8): 2.82 µM (inactive) | GI50 (PC-3): 2.16 µM (inactive) | GI50 (RPMI-8226): 0.182 µM (active) | GI50 (RXF 393): 4.01 µM (inactive) | GI50 (SF-268): 4.17 µM (inactive) | GI50 (SF-295): 3.01 µM (inactive) | GI50 (SF-539): 5.08 µM (inactive) | GI50 (SK-MEL-28): 2.39 µM (inactive) | GI50 (SK-MEL-2): 6.7 µM (inactive) | GI50 (SK-MEL-5): 2.97 µM (inactive) | GI50 (SK-OV-3): 9.2 µM (inactive) | GI50 (SN12C): 2.17 µM (inactive) | GI50 (SNB-19): 4.72 µM (inactive) | GI50 (SNB-75): 6.97 µM (inactive) | GI50 (SNB-78): 19.8 µM (inactive) | GI50 (SR): 0.873 µM (active) | GI50 (SW-620): 1.4 µM (inactive) | GI50 (T47D): 3.65 µM (inactive) | GI50 (TK-10): 8.34 µM (inactive) | GI50 (U-251): 1.45 µM (inactive) | GI50 (UACC-257): 4.46 µM (inactive) | GI50 (UACC-62): 2.66 µM (inactive) | GI50 (UO-31): 5.85 µM (inactive) | GI50 (XF498): 12.8 µM (inactive)

CC(=O)NC1C(=O)CC(c2ccccc2)N(C)C1c1ccccc1 (stereo unspecified)
GI50 (786-0): > 100 µM (inactive) | GI50 (A498): > 100 µM (inactive) | GI50 (A549): > 100 µM (inactive) | GI50 (ACHN): > 100 µM (inactive) | GI50 (CAKI-1): > 100 µM (inactive) | GI50 (CCRF-CEM): > 100 µM (inactive) | GI50 (COLO 205): > 100 µM (inactive) | GI50 (DLD-1): > 100 µM (inactive) | GI50 (DMS-114): > 100 µM (inactive) | GI50 (DMS-273): > 100 µM (inactive) | GI50 (EKVX): > 100 µM (inactive) | GI50 (HCC 2998): > 100 µM (inactive) | GI50 (HCT-116): > 100 µM (inactive) | GI50 (HCT-15): > 100 µM | GI50 (HL-60): > 100 µM (inactive) | GI50 (HOP-62): > 100 µM (inactive) | GI50 (HOP-92): 82.6 µM (inactive) | GI50 (HT-29): 78 µM (inactive) | GI50 (IGROV-1): > 100 µM (inactive) | GI50 (K562): > 100 µM (inactive) | GI50 (KM-20L2): > 100 µM (inactive) | GI50 (KM12): > 100 µM (inactive) | GI50 (LOX IMVI): 6.17 µM (inactive) | GI50 (LXFL 529): > 100 µM (inactive) | GI50 (M14): 61 µM (inactive) | GI50 (M19-MEL): > 100 µM (inactive) | GI50 (MOLT-4): > 100 µM (inactive) | GI50 (Malme-3M): > 100 µM (inactive) | GI50 (NCI-H226): > 100 µM (inactive) | GI50 (NCI-H23): > 100 µM (inactive) | GI50 (NCI-H460): > 100 µM (inactive) | GI50 (NCI-H522): > 100 µM (inactive) | GI50 (OVCAR-3): > 100 µM (inactive) | GI50 (OVCAR-4): > 100 µM (inactive) | GI50 (OVCAR-5): > 100 µM (inactive) | GI50 (OVCAR-8): > 100 µM (inactive) | GI50 (RXF 393): > 100 µM (inactive) | GI50 (RXF 631): > 100 µM (inactive) | GI50 (SF-268): > 100 µM (inactive) | GI50 (SF-295): > 100 µM (inactive) | GI50 (SF-539): > 100 µM (inactive) | GI50 (SK-MEL-28): > 100 µM (inactive) | GI50 (SK-MEL-2): > 100 µM (inactive) | GI50 (SK-MEL-5): > 100 µM (inactive) | GI50 (SK-OV-3): 26.3 µM (inactive) | GI50 (SN12C): > 100 µM (inactive) | GI50 (SNB-19): > 100 µM (inactive) | GI50 (SNB-75): > 100 µM (inactive) | GI50 (SNB-78): > 100 µM (inactive) | GI50 (SR): > 100 µM (inactive) | GI50 (SW-620): > 100 µM (inactive) | GI50 (TK-10): > 100 µM (inactive) | GI50 (U-251): > 100 µM (inactive) | GI50 (UACC-257): > 100 µM (inactive) | GI50 (UACC-62): > 100 µM (inactive) | GI50 (UO-31): 94.8 µM (inactive)
